How the values were obtained:
[1] = biological target: T1, Phosphatidylinositol 4,5-bisphosphate 3-kinase catalytic subunit delta isoform (Homo sapiens) (UniProt O00329); assay: Inhibition of PIK3CD (unknown origin) assessed as remaining activity at 5 uM incubated for 1 hr by KINOMEscan competitive binding assay relative to control
T1 sequence (whole entry): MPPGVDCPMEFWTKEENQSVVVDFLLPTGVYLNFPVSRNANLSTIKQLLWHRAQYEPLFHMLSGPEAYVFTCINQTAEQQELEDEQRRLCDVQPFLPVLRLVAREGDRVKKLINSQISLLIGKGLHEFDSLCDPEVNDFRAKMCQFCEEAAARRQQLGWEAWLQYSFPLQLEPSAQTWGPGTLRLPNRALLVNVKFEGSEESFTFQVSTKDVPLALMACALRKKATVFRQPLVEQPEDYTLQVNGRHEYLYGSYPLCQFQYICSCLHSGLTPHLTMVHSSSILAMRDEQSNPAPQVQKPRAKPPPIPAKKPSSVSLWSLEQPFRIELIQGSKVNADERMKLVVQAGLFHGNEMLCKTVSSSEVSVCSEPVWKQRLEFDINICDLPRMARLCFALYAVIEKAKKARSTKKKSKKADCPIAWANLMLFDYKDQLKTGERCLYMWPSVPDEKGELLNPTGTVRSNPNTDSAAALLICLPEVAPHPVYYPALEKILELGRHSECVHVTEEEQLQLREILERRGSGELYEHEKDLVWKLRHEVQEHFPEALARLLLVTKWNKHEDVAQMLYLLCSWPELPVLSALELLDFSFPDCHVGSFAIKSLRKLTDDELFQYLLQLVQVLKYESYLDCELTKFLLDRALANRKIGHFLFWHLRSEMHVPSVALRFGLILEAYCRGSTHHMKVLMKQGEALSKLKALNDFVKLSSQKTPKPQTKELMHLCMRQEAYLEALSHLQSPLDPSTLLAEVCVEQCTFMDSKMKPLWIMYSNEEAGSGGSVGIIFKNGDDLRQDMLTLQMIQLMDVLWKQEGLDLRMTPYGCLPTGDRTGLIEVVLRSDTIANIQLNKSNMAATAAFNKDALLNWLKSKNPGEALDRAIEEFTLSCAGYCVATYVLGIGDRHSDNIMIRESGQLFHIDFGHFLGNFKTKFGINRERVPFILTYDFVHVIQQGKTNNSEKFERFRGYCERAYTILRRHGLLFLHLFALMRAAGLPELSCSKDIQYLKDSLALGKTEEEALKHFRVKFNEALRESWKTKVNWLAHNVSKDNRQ

[2] = system: Phosphatidylinositol 4,5-bisphosphate 3-kinase catalytic subunit alpha isoform (Homo sapiens), P42336 [E542K]; assay: Inhibition of PIK3CA E542K mutant (unknown origin) assessed as remaining activity at 5 uM incubated for 1 hr by KINOMEscan competitive binding assay relative to control
Phosphatidylinositol 4,5-bisphosphate 3-kinase catalytic subunit alpha isoform (Homo sapiens), P42336 [E542K], sequence (P42336 whole entry E542K, canonical isoform): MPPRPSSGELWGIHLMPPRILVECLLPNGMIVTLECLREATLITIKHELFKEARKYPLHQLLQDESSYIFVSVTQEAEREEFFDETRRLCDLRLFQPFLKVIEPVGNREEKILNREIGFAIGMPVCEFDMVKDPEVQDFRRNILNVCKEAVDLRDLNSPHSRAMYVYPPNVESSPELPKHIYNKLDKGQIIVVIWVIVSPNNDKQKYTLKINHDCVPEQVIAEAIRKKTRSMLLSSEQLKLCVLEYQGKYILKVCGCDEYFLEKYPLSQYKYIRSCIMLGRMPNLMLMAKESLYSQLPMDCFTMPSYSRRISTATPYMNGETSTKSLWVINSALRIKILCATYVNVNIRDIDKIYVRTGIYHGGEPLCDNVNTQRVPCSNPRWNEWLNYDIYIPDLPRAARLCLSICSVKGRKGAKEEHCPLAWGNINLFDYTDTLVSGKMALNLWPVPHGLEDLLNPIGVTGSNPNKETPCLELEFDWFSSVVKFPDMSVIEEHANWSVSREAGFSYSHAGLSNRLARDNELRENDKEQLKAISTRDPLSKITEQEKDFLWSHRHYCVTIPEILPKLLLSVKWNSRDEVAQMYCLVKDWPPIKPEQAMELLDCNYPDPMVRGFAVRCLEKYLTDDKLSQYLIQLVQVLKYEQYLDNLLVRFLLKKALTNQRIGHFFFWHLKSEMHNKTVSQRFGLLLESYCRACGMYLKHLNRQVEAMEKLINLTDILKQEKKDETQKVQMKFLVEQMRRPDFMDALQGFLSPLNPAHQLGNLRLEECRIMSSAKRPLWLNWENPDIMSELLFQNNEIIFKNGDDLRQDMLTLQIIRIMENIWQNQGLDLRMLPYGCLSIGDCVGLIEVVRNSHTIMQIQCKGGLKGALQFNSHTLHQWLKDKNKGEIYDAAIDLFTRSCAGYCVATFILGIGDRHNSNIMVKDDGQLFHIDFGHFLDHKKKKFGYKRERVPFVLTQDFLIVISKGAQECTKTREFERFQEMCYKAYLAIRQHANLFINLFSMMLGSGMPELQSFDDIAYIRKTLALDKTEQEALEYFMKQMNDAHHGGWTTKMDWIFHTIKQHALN

[3] = system: Phosphatidylinositol 4,5-bisphosphate 3-kinase catalytic subunit alpha isoform (Homo sapiens), P42336 [M1043I]; assay: Inhibition of PIK3CA M1043I mutant (unknown origin) assessed as remaining activity at 5 uM incubated for 1 hr by KINOMEscan competitive binding assay relative to control
Phosphatidylinositol 4,5-bisphosphate 3-kinase catalytic subunit alpha isoform (Homo sapiens), P42336 [M1043I], sequence (P42336 whole entry M1043I, the tested form may be a part, canonical isoform): as the sequence (P42336 whole entry E542K, canonical isoform) above, with K542E, M1043I counted along it

[4] = biological target: T2, Phosphatidylinositol 3-kinase C2 domain-containing subunit gamma (Homo sapiens) (UniProt O75747); assay: Inhibition of PIK3C2G (unknown origin) assessed as remaining activity at 5 uM incubated for 1 hr by KINOMEscan competitive binding assay relative to control
T2 sequence (whole entry): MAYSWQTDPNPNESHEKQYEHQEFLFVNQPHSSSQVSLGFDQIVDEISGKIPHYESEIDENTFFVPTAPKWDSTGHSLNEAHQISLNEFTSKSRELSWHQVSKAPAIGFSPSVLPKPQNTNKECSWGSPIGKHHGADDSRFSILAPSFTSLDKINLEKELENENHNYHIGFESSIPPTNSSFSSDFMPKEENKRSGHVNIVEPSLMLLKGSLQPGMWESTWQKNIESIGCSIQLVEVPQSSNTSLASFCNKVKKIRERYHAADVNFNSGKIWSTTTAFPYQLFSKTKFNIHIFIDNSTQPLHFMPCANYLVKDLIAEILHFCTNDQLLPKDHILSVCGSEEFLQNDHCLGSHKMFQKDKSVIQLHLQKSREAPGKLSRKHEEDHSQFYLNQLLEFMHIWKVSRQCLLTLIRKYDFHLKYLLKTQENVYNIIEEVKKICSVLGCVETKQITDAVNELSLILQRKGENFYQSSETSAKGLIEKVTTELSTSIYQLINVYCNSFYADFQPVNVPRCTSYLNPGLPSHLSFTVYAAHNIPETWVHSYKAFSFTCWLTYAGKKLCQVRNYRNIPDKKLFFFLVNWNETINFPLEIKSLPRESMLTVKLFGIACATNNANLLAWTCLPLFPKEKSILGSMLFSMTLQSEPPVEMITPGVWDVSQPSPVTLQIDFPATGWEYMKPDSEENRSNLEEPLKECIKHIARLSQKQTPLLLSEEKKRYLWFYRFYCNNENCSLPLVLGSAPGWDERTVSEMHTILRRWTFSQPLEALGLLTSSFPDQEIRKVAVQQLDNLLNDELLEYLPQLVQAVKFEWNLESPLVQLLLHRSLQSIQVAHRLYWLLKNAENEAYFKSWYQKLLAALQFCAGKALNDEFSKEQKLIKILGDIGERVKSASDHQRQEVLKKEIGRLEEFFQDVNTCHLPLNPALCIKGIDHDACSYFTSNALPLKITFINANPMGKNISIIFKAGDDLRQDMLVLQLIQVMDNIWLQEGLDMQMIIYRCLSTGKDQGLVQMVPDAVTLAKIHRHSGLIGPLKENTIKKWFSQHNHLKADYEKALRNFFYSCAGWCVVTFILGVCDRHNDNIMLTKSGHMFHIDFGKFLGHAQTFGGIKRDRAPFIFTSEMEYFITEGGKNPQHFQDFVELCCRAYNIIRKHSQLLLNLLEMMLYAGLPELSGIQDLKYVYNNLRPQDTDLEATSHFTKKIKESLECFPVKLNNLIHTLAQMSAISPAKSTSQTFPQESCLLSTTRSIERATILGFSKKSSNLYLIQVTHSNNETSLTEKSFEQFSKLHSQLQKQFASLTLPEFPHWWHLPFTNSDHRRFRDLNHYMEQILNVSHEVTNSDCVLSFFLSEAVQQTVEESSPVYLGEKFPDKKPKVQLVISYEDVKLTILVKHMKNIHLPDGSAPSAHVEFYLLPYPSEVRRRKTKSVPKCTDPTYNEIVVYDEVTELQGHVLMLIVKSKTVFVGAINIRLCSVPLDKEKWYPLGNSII

[5] = biological target: Casein kinase II subunit alpha (Homo sapiens) (UniProt P68400); assay: Inhibition of CSNK2A1 (unknown origin) assessed as remaining activity at 10 uM incubated for 1 hr by KINOMEscan competitive binding assay relative to control
Casein kinase II subunit alpha (Homo sapiens), sequence (P68400 whole entry, looked up, canonical isoform): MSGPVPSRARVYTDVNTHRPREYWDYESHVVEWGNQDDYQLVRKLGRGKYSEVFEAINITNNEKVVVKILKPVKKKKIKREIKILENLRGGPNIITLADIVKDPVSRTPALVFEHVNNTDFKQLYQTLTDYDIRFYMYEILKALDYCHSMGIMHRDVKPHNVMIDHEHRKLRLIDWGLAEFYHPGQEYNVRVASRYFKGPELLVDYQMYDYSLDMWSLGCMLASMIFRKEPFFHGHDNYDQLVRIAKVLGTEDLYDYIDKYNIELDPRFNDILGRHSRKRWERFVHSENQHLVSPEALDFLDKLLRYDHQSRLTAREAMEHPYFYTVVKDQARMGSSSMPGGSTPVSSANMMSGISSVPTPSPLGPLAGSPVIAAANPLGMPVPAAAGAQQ

[6] = biological target: T1, Phosphatidylinositol 4,5-bisphosphate 3-kinase catalytic subunit delta isoform (Homo sapiens); assay: Inhibition of PIK3CD (unknown origin) assessed as remaining activity at 10 uM incubated for 1 hr by KINOMEscan competitive binding assay relative to control
[7] = biological target: T2, Phosphatidylinositol 3-kinase C2 domain-containing subunit gamma (Homo sapiens); assay: Inhibition of PIK3C2G (unknown origin) assessed as remaining activity at 10 uM incubated for 1 hr by KINOMEscan competitive binding assay relative to control

Row | Compound | Activity [1] [%] | Activity [2] [%] | Activity [3] [%] | Activity [4] [%] | Activity [5] [%] | Activity [6] [%] | Activity [7] [%]
1 | O=c1[nH]c2ccc(Cl)cc2c(N[C@@H]2CN3CCC2CC3)c1-c1nc2ccccc2[nH]1 | 57 | 93 | 85 | 74 |  |  | 
2 | NC(=O)Nc1cc(-c2cccc(F)c2)sc1C(=O)N[C@H]1CCCNC1 |  |  |  |  | 0.8 | 81 | 98
